Data on six compounds can be found in patent US20260337231A1, “METHOD FOR PRODUCING CYCLIC PEPTIDE COMPOUND” (CHUGAI SEIYAKU KABUSHIKI KAISHA, priority 2023, published 2026).

The nature of data set [1]: Crystal form after drying under reduced pressure (powder X-ray diffraction). Format: physicochemical. The method, then:
The amorphous powder of Compound 1 (10.7 mg) was dissolved in 2-propanol (32.1 μL), and about 0.1 mg of the crystal obtained in Example 3-1 was added. Thereafter, heptane ([…]) was added, and the mixture was shaken at room temperature for 3 hours. Furthermore, heptane (21.4 μL) was added, and after shaking at room temperature for 2 hours, heptane (21.4 μL) was added and the mixture was shaken at room temperature for 3 hours. Heptane (21.4 μL) was further added, and the mixture was shaken at room temperature for 15 hours, thereby obtaining a crystal (form E) of compound 1. Single crystal X-ray structural analysis was performed on the obtained crystal (Example 4-8), and it was confirmed to be a 2-propanol/heptane/water solvate. […] The obtained crystal (form E) was dried under reduced pressure, and powder X-ray diffraction measurement was performed (Example 4-3).
The amorphous powder of Compound 1 (9.0 mg) was dissolved in ethanol (27.0 μL), heptane (27.0 μL) was added, and the mixture was shaken at room temperature for 4 minutes. About 0.1 mg of the crystal obtained in Example 3-4 was added, and the mixture was shaken at room temperature for 1 minute to obtain a crystal of compound 1. Single crystal X-ray structural analysis was performed (Example 4-9), confirming that the obtained crystal is an ethanol/water solvate crystal (form H). […] The obtained crystal (form H) was dried under reduced pressure, and powder X-ray diffraction measurement was performed (Example 4-3).
The amorphous powder of Compound 1 (10.9 mg) was dissolved in ethyl acetate (32.7 μL), heptane (32.7 μL) was added, and the mixture was shaken at room temperature for 4 minutes. About 0.1 mg of the crystal obtained in Example 3-5 was added, and the mixture was shaken at room temperature for 1 minute, thereby obtaining a crystal of compound 1. Single crystal X-ray structural analysis was performed (Example 4-9), confirming that the obtained crystal is an ethyl acetate/water solvate crystal (form C). […] The obtained crystal (form C) was dried under reduced pressure, and powder X-ray diffraction measurement was performed (Example 4-3).
The crystal (form A, 6.8 mg) of compound 1 obtained in Example 3-8 was dissolved in dimethyl sulfoxide (0.12 mL), and the mixture was shaken and stirred at room temperature for 13 days. Furthermore, water (1 μL) was added and the mixture was stirred at room temperature for 34 days to obtain a crystal of compound 1. The obtained crystal was confirmed to be a dimethyl sulfoxide/water solvate crystal (form L) by single crystal X-ray structural analysis (Example 4-8). […] Powder X-ray diffraction measurement (Example 4-3) on the crystal obtained by performing the same procedure confirmed that the form L is a solvate crystal that is amorphized by drying under reduced pressure.
To the crystal (form B, 45.8 mg) of compound 1, propylene glycol (0.12 mL) was added, and the mixture was stirred at room temperature for 5 minutes. Furthermore, propylene glycol (0.020 mL) was added, and the mixture was stirred at 40° C. for 5 minutes. Thereafter, propylene glycol (0.070 mL) was added, the mixture was stirred at 40° C. for 5 minutes and further allowed to stand still for 5 hours. Propylene glycol (0.070 mL) was further added, and the mixture was stirred at 35° C. for overnight. Then, propylene glycol (0.070 mL) was added and the mixture was stirred for about 1 minute to obtain a wet powder of compound 1. […]

Data set [2] is described as follows: Thermogravimetry-differential thermal analysis (TG-DTA). Format: physicochemical. The note with it: 10° C./min, nitrogen, at 157° C., Example 3-17. On the procedure: The thermogravimetry-differential thermal analysis (TG-DTA) for Example 3-8, Example 3-9, Example 3-12, Example 3-13, Example 3-17, and Example 3-19 was performed under the following conditions. • Measurement apparatus: STA7200RV+AS-3T (manufactured by Hitachi High-Tech Science Corporation) • Measurement range: 30 to 350° C. • Heating rate: 10° C./min • Atmosphere: nitrogen • Measurement: The sample was weighed in an open aluminum pan and covered with a mesh to perform the measurement.

Consider `CCC[C@H]1C(=O)N[C@@H]([C@@H](C)CC)C(=O)N2CCC[C@H]2C(=O)N(C)[C@H]2C/C=C\CCN(C2=O)[C@@H](Cc2ccc(C(F)(F)F)cc2)C(=O)N(C)CC(=O)N[C@@H](CCc2ccc(C(F)(F)F)c(OC)c2)C(=O)N2C[C@H](OCC)C[C@H]2C(=O)N(C)C2(CCC2)C(=O)N(C)[C@@H](C2CCCC2)C(=O)N(C)[C@H](C(=O)N(C)C)CC(=O)N1C` [form M], for which, in data set [1] (dried under reduced pressure at room temperature for overnight), the “transformation after drying under reduced pressure” value was “transformed into a form N crystal”.
Regarding `CCC[C@H]1C(=O)N[C@@H]([C@@H](C)CC)C(=O)N2CCC[C@H]2C(=O)N(C)[C@H]2C/C=C\CCN(C2=O)[C@@H](Cc2ccc(C(F)(F)F)cc2)C(=O)N(C)CC(=O)N[C@@H](CCc2ccc(C(F)(F)F)c(OC)c2)C(=O)N2C[C@H](OCC)C[C@H]2C(=O)N(C)C2(CCC2)C(=O)N(C)[C@@H](C2CCCC2)C(=O)N(C)[C@H](C(=O)N(C)C)CC(=O)N1C` [form L], the “transformation after drying under reduced pressure” value in data set [1] (drying under reduced pressure) is on record as “amorphized”.
For the compound `CCC[C@H]1C(=O)N[C@@H]([C@@H](C)CC)C(=O)N2CCC[C@H]2C(=O)N(C)[C@H]2C/C=C\CCN(C2=O)[C@@H](Cc2ccc(C(F)(F)F)cc2)C(=O)N(C)CC(=O)N[C@@H](CCc2ccc(C(F)(F)F)c(OC)c2)C(=O)N2C[C@H](OCC)C[C@H]2C(=O)N(C)C2(CCC2)C(=O)N(C)[C@@H](C2CCCC2)C(=O)N(C)[C@H](C(=O)N(C)C)CC(=O)N1C` [form C], the “transformation after drying under reduced pressure” value in data set [1] (drying under reduced pressure) is recorded as “transformed into the hydrate crystal (form B)”.
With `CCC[C@H]1C(=O)N[C@@H]([C@@H](C)CC)C(=O)N2CCC[C@H]2C(=O)N(C)[C@H]2C/C=C\CCN(C2=O)[C@@H](Cc2ccc(C(F)(F)F)cc2)C(=O)N(C)CC(=O)N[C@@H](CCc2ccc(C(F)(F)F)c(OC)c2)C(=O)N2C[C@H](OCC)C[C@H]2C(=O)N(C)C2(CCC2)C(=O)N(C)[C@@H](C2CCCC2)C(=O)N(C)[C@H](C(=O)N(C)C)CC(=O)N1C` [form N], the weight reduction result in data set [2] is “about 11%”.
`CCC[C@H]1C(=O)N[C@@H]([C@@H](C)CC)C(=O)N2CCC[C@H]2C(=O)N(C)[C@H]2C/C=C\CCN(C2=O)[C@@H](Cc2ccc(C(F)(F)F)cc2)C(=O)N(C)CC(=O)N[C@@H](CCc2ccc(C(F)(F)F)c(OC)c2)C(=O)N2C[C@H](OCC)C[C@H]2C(=O)N(C)C2(CCC2)C(=O)N(C)[C@@H](C2CCCC2)C(=O)N(C)[C@H](C(=O)N(C)C)CC(=O)N1C` [form E]: the “transformation after drying under reduced pressure” value in data set [1] (drying under reduced pressure) was “transformed into the hydrate crystal (form A)”.
Still for that read-out and setting: to `CCC[C@H]1C(=O)N[C@@H]([C@@H](C)CC)C(=O)N2CCC[C@H]2C(=O)N(C)[C@H]2C/C=C\CCN(C2=O)[C@@H](Cc2ccc(C(F)(F)F)cc2)C(=O)N(C)CC(=O)N[C@@H](CCc2ccc(C(F)(F)F)c(OC)c2)C(=O)N2C[C@H](OCC)C[C@H]2C(=O)N(C)C2(CCC2)C(=O)N(C)[C@@H](C2CCCC2)C(=O)N(C)[C@H](C(=O)N(C)C)CC(=O)N1C` [form H] belongs “transformed into the hydrate crystal (form B)”.
